Laboratory results published in publication PMC5344293, “A phase 1 dose-escalation and expansion study of binimetinib (MEK162), a potent and selective oral MEK1/2 inhibitor” (British Journal of Cancer, 2017).

Experiment: Phase 1 safety: adverse events
Format: in vivo, human
Method: All patients underwent a complete medical history and physical examination, assessment of ECOG performance status and vital signs, and laboratory analysis of haematology, coagulation, clinical chemistry, and urine. Three serial resting and supine 12-lead electrocardiograms were conducted over 5–10 min and cardiac ejection fraction was assessed by echocardiogram or MUGA. In addition, a complete ophthalmologic examination (including visual acuity; fundoscopy and tonometry; optical coherence tomography; and slit-lamp, lens, vitreous, and fluorescence dye examinations) was performed on each patient. These assessments were repeated throughout study participation and/or as clinically indicated. Adverse events were reviewed on an ongoing basis.
Adverse events and serious AEs (SAEs) were coded by preferred term (PT) and system organ class using the Medical Dictionary for Regulatory Activities version 12.0. The severity of AEs was assessed by investigators using the National Cancer Institute Common Terminology Criteria for Adverse Events version 3.0. Two AEs of special interest were captured under the composite terms of ‘combined rash' and ‘combined ocular events.' The ‘combined rash' term included the PTs of dermatitis acneiform, acne, skin exfoliation, and any term containing ‘rash'. The ‘combined ocular events' term included the PTs of retinal deposits, retinopathy, papilloedema, chorioretinopathy, macular oedema, retinal detachment, and retinal disorder.
All patients who received ⩾1 dose of binimetinib were included in the safety analysis. Patients in the safety analysis who had ⩾1 measurable lesion at baseline and at least 1 post-baseline disease assessment were evaluable for efficacy. Kaplan–Meier estimates of progression-free survival (PFS) and overall survival (OS) were performed for patients in the expansion phase ([Kaplan and Meier, 1958]) using SAS Version 9.2 (SAS Institute Inc., Cary, NC, USA).

## Cn1cnc2c(F)c(Nc3ccc(Br)cc3F)c(C(=O)NOCCO)cc21 [binimetinib]
30 mg BID (n=4), Gr 1/2
  Abdominal pain: 1 (25) n (%)
  Anaemia: 1 (25) n (%)
  Anorexia: 1 (25) n (%)
  Combined ocular events: 0 (0) n (%)
  Combined rash: 4 (100) n (%)
  Constipation: 2 (50) n (%)
  Diarrhoea: 4 (100) n (%)
  Dizziness: 0 (0) n (%)
  Dyspnoea: 2 (50) n (%)
  Fatigue: 2 (50) n (%)
  Nausea: 3 (75) n (%)
  Peripheral oedema: 0 (0) n (%)
  Pyrexia: 2 (50) n (%)
  Vomiting: 3 (75) n (%)
30 mg BID (n=4), Gr 3/4
  Abdominal pain: 0 (0) n (%)
  Anaemia: 0 (0) n (%)
  Anorexia: 0 (0) n (%)
  Combined ocular events: 0 (0) n (%)
  Combined rash: 0 (0) n (%)
  Constipation: 0 (0) n (%)
  Diarrhoea: 0 (0) n (%)
  Dizziness: 0 (0) n (%)
  Dyspnoea: 0 (0) n (%)
  Fatigue: 0 (0) n (%)
  Nausea: 0 (0) n (%)
  Peripheral oedema: 0 (0) n (%)
  Pyrexia: 0 (0) n (%)
  Vomiting: 0 (0) n (%)
30 mg BID dose group
  Incidence of ocular events: 0%
  Patients reporting SAEs: 50%
45 mg BID (n=44), Gr 1/2
  Abdominal pain: 7 (16) n (%)
  Anaemia: 5 (11) n (%)
  Anorexia: 8 (18) n (%)
  Combined ocular events: 5 (11) n (%)
  Combined rash: 33 (75) n (%)
  Constipation: 6 (14) n (%)
  Diarrhoea: 17 (39) n (%)
  Dizziness: 5 (11) n (%)
  Dyspnoea: 5 (11) n (%)
  Fatigue: 18 (41) n (%)
  Nausea: 27 (61) n (%)
  Peripheral oedema: 20 (45) n (%)
  Pyrexia: 7 (16) n (%)
  Vomiting: 23 (52) n (%)
45 mg BID (n=44), Gr 3/4
  Abdominal pain: 1 (2) n (%)
  Anaemia: 3 (7) n (%)
  Anorexia: 0 (0) n (%)
  Combined ocular events: 0 (0) n (%)
  Combined rash: 1 (2) n (%)
  Constipation: 0 (0) n (%)
  Diarrhoea: 0 (0) n (%)
  Dizziness: 0 (0) n (%)
  Dyspnoea: 2 (5) n (%)
  Fatigue: 2 (5) n (%)
  Nausea: 0 (0) n (%)
  Peripheral oedema: 0 (0) n (%)
  Pyrexia: 0 (0) n (%)
  Vomiting: 0 (0) n (%)
45 mg BID dose group
  AEs resulting in treatment discontinuation, patients: 16%
  AEs that resulted in dose reduction, patients: 16%
  Incidence of combined rash: 77%
  Incidence of diarrhoea: 39%
  Incidence of nausea: 61%
  Incidence of ocular events: 11%
  Incidence of peripheral oedema: 45%
  Incidence of vomiting: 52%
  Median time to onset of combined rash: 8 days
  Patients reporting SAEs: 20%
60 mg BID (n=41), Gr 1/2
  Abdominal pain: 7 (17) n (%)
  Anaemia: 5 (12) n (%)
  Anorexia: 8 (20) n (%)
  Combined ocular events: 11 (27) n (%)
  Combined rash: 35 (85) n (%)
  Constipation: 8 (20) n (%)
  Diarrhoea: 25 (61) n (%)
  Dizziness: 9 (22) n (%)
  Dyspnoea: 6 (15) n (%)
  Fatigue: 16 (39) n (%)
  Nausea: 21 (51) n (%)
  Peripheral oedema: 21 (51) n (%)
  Pyrexia: 7 (17) n (%)
  Vomiting: 20 (49) n (%)
60 mg BID (n=41), Gr 3/4
  Abdominal pain: 3 (7) n (%)
  Anaemia: 10 (24) n (%)
  Anorexia: 0 (0) n (%)
  Combined ocular events: 0 (0) n (%)
  Combined rash: 1 (2) n (%)
  Constipation: 2 (5) n (%)
  Diarrhoea: 0 (0) n (%)
  Dizziness: 0 (0) n (%)
  Dyspnoea: 1 (2) n (%)
  Fatigue: 1 (2) n (%)
  Nausea: 0 (0) n (%)
  Peripheral oedema: 0 (0) n (%)
  Pyrexia: 1 (2) n (%)
  Vomiting: 0 (0) n (%)
60 mg BID dose group
  AEs resulting in treatment discontinuation, patients: 15%
  AEs that resulted in dose reduction, patients: 49%
  Incidence of combined rash: 88%
  Incidence of diarrhoea: 61%
  Incidence of nausea: 51%
  Incidence of ocular events: 27%
  Incidence of peripheral oedema: 51%
  Incidence of vomiting: 49%
  Median time to onset of combined rash: 10 days
  Patients reporting SAEs: 41%
80 mg BID (n=4), Gr 1/2
  Abdominal pain: 1 (25) n (%)
